Measurements taken from ChEMBL document CHEMBL1201862, “PubChem BioAssay data set” (2004).
Calls of active or inactive are those of the source.

Tests used:
[1] = biological target: T1, RNA-binding protein pos-1 (Caenorhabditis elegans, UniProt G5EF15); experiment: disruptors of C. elegans POS-1 RNA interaction – biochemical, fluorescence polarization, dose response (AID 1964);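 further: purified POS-1 fused to maltose binding protein made in E. coli; potency of compounds blocking POS-1 binding to fluorescent RNA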
T1 sequence (G5EF15 whole entry): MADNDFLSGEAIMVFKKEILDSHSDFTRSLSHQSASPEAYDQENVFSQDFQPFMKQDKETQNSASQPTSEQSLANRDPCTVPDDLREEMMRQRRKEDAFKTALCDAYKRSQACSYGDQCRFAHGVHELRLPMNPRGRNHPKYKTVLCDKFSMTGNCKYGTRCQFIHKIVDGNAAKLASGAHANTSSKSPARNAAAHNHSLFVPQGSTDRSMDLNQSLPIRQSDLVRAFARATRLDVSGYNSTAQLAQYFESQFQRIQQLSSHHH

[2] = biological target: T2, Zinc finger protein mex-5 (Caenorhabditis elegans, UniProt Q9XUB2); experiment: potency of MEX-5 RNA-binding blockers – biochemical, C. elegans, fluorescence polarization, dose response (AID 1960)
T2 sequence (Q9XUB2 whole entry): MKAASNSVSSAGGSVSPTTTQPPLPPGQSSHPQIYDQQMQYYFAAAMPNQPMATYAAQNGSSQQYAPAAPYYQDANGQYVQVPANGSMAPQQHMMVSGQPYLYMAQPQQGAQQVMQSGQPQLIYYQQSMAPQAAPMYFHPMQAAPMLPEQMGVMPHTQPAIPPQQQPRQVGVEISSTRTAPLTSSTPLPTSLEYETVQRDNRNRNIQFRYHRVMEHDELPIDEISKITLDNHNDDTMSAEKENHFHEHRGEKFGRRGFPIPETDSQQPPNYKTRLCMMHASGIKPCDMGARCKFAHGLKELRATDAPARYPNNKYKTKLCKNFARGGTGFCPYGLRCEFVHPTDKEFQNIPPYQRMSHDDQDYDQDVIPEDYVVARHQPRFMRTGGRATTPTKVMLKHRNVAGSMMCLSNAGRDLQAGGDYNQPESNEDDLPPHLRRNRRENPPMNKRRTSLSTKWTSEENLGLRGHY

[3] = biological target: Dual specificity protein phosphatase 3 (Homo sapiens, UniProt P51452); experiment: VHR1 phosphatase inhibitors, biochemical (AID 1878)
Dual specificity protein phosphatase 3, sequence (P51452 whole entry): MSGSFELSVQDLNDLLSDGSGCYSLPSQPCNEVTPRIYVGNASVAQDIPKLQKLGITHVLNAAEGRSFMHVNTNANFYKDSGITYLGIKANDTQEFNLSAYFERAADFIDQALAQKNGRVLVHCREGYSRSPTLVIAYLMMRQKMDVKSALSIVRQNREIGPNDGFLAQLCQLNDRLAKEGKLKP

[4] = biological target: Bifunctional protein GlmU (Mycobacterium tuberculosis, UniProt P9WMN3); experiment: Inhibitors of Mycobacterial Glucosamine-1-phosphate acetyl transferase (GlmU). Secondary screen.; set-up: species or system Mycobacterium tuberculosis H37Rv
Bifunctional protein GlmU, sequence (P9WMN3 whole entry): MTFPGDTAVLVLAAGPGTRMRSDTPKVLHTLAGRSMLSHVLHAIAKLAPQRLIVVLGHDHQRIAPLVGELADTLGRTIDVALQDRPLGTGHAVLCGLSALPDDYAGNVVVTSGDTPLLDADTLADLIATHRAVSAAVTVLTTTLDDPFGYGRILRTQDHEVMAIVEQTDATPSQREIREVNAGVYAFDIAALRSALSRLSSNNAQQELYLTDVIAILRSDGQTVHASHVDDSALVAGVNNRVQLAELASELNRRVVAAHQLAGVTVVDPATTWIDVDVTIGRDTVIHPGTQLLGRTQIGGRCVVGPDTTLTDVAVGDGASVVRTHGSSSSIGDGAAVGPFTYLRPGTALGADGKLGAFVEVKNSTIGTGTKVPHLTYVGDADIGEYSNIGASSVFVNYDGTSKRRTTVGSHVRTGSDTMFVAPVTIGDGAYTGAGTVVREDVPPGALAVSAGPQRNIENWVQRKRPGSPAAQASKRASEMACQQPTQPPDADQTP

[5] = biological target: T3, Endoribonuclease toxin MazF (Escherichia coli K-12, UniProt P0AE70); experiment: activation of MazEF endoribonuclease cleavage – biochemical, fluorescence, single-stranded RNA substrate, uHTS hits, dose response (AID 588481); assay type: functional
T3 sequence (P0AE70 whole entry): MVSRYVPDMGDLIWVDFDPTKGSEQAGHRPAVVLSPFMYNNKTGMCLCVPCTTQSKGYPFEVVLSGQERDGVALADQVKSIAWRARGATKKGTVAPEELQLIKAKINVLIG

[6] = biological target: Genome polyprotein (dengue virus type 2, UniProt P29990); experiment: flavivirus cap methylation enzyme inhibition – biochemical, confirmation dose response, primary screen (AID 588689); assay type: functional
Genome polyprotein, sequence (P29990 2492-3391 limits assumed): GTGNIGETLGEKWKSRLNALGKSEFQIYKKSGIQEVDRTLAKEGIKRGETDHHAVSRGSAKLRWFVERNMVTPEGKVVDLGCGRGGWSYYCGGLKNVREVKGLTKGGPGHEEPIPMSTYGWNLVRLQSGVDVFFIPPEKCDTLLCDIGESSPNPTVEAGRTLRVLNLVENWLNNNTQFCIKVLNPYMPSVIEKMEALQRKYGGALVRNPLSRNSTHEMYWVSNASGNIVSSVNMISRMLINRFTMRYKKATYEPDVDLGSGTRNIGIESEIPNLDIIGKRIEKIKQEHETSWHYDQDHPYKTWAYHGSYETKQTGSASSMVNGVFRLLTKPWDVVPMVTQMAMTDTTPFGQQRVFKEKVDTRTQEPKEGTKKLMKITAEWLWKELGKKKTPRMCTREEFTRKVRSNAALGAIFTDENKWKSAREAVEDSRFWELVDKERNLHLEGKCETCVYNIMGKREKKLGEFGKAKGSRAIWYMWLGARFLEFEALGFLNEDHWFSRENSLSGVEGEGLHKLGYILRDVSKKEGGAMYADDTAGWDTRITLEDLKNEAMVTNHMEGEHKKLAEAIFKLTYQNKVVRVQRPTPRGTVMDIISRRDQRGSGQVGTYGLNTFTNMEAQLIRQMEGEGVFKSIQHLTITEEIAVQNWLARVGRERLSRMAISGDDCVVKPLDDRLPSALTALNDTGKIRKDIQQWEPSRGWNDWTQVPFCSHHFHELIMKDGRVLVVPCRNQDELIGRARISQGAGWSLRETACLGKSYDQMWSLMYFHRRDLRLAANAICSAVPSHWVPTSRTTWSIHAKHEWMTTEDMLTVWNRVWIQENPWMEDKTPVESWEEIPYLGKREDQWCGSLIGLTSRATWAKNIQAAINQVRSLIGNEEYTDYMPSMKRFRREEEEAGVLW

[7] = biological target: Albumin (Bos taurus, UniProt P02769); experiment: Counterscreen for inhibitors of T-cell receptor (TCR)-CD3 interaction: Fluorescence-based biochemical high throughput dose response assay to identify inhibitors of T-cell receptor (TCR)-CD3 interaction using a TAMRA-labeled BSA probe.; assay type: functional
Albumin, sequence (P02769 whole entry): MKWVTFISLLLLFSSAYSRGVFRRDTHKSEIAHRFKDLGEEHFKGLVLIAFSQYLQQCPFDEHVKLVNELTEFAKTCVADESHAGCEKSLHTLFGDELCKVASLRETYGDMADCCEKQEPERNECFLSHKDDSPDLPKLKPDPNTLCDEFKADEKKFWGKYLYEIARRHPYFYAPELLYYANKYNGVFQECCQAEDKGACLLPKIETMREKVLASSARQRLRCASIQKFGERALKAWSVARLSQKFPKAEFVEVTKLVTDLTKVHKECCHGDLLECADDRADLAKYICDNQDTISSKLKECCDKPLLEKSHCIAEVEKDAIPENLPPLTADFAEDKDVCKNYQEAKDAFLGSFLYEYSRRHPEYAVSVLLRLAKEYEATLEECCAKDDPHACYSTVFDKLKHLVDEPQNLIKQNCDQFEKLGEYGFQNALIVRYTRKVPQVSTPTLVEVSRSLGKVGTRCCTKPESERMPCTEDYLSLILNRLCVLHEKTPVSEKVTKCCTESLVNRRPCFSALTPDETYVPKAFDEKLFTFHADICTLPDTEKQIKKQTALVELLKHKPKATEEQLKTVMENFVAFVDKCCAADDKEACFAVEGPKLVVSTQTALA

[8] = biological target: Caspase-7 (Homo sapiens, UniProt P55210); experiment: caspase-7 enzyme inhibition, selectivity check – biochemical, DEVD-R110 fluorescence, cherry-pick, selectivity assay for caspase-6 inhibitor project, dose response (AID 743295); assay type: functional
Caspase-7, sequence (P55210 24-198 limits assumed): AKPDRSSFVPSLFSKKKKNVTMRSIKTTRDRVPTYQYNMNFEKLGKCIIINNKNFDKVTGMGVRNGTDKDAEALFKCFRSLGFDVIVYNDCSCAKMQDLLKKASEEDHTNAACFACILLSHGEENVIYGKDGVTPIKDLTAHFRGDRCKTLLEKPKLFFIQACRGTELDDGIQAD
Caspase-7, sequence (P55210 207-303 limits assumed): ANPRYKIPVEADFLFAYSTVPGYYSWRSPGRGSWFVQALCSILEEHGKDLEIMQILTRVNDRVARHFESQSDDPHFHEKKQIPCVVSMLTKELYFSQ

[9] = biological target: T4, 1-phosphatidylinositol 4,5-bisphosphate phosphodiesterase gamma-1 (Homo sapiens, UniProt P19174); experiment: Counterscreen for inhibitors of phospholipase C isozymes (PLC-B3): Fluorescence-based biochemical high throughput dose response assay to identify inhibitors of phospholipase C isozymes (PLC-gamma1).
T4 sequence (P19174 whole entry): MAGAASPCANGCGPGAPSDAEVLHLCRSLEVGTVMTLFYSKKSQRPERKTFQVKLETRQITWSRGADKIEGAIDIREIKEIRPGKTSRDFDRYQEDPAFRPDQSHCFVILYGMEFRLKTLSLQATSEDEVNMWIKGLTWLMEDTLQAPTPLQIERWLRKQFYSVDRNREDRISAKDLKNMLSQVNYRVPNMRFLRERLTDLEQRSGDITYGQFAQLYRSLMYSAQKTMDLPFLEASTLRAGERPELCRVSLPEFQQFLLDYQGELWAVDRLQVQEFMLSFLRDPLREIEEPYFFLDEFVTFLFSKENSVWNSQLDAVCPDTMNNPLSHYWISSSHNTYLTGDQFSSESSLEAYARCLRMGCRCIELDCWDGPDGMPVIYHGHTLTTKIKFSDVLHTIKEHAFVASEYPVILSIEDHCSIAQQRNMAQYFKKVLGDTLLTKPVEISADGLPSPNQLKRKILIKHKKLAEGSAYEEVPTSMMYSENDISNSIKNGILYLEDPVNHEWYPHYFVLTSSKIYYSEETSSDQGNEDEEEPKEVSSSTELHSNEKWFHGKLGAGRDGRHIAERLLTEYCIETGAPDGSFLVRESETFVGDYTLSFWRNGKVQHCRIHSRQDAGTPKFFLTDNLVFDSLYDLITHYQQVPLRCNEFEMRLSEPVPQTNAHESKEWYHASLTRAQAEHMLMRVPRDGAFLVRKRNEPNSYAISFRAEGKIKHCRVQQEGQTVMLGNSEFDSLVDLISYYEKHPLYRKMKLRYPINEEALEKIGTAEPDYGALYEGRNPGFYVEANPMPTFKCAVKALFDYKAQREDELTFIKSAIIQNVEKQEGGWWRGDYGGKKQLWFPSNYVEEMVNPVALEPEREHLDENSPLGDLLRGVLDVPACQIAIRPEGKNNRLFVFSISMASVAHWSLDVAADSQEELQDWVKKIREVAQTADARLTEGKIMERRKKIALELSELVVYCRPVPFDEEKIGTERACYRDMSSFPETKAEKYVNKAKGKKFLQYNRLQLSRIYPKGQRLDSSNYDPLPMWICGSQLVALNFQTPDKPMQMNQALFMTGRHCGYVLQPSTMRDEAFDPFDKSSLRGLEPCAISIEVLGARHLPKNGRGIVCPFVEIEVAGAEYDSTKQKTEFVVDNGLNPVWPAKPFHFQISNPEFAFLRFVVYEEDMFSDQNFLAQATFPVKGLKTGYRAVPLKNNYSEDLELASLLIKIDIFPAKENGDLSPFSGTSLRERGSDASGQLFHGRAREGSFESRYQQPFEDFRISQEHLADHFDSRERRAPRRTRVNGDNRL

[10] = biological target: Caspase-8 (Homo sapiens, UniProt Q14790); experiment: inhibitors of purified CASP8 protease – biochemical, Z-IETD-R110 fluorescence, cherry-picked samples, selectivity assay for caspase-6 inhibitor project, dose response (AID 743294)
Caspase-8, sequence (Q14790 217-374 limits assumed): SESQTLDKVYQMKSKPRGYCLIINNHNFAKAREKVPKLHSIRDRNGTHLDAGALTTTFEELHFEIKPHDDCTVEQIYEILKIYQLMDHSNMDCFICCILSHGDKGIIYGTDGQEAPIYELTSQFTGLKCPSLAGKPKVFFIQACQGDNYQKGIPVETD
Caspase-8, sequence (Q14790 385-479 limits assumed): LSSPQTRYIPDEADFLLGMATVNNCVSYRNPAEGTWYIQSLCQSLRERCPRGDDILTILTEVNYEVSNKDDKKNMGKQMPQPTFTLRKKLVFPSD

O=c1c(O)cccc2cc(O)c(O)c(O)c12 [PURPUROGALLIN]
active: EC50 [1] 6.57 µM | EC50 [2] 0.152 µM | IC50 [4] 21.5 µM | IC50 [6] 12.2 µM | AC50 [8] 1.09 µM
inactive: IC50 [3] < 1.23 µM | EC50 [5] 80.3 µM | IC50 [7] > 94.1 µM | IC50 [9] 20.9 µM | AC50 [10] > 70 µM
